Measured values reported in ChEMBL document CHEMBL1909046, “DrugMatrix in vitro pharmacology data”.

How the values were obtained:
[1] = molecular target: T1, 5-hydroxytryptamine receptor 1A (Rattus norvegicus, UniProt P19327); format: cell membranes, CHO-K1, Membrane; note: in other assays of this panel Not Active means under 50% inhibition at 10 µM
T1 sequence (P19327 whole entry): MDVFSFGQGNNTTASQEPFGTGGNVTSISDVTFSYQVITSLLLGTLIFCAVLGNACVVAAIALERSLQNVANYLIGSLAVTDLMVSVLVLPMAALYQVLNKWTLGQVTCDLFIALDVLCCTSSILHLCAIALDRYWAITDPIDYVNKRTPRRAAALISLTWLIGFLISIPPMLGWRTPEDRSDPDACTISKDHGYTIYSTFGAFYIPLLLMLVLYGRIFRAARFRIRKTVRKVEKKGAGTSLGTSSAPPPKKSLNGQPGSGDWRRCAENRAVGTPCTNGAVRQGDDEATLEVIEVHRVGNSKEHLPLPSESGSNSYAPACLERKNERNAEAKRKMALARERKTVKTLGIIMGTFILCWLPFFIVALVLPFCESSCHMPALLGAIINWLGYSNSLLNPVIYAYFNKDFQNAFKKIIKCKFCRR

[2] = DRUGMATRIX: Phosphodiesterase PDE4 enzyme inhibition (substrate: [3H]cAMP + cAMP); conditions: u-937; Not Active = under 50% inhibition at 10 µM
[3] = molecular target: T2, Calcitonin receptor (Homo sapiens, UniProt P30988); format: cell membranes, Membrane; conditions: t47d; note: in other assays of this panel Not Active means under 50% inhibition at 10 µM
T2 sequence (P30988 whole entry): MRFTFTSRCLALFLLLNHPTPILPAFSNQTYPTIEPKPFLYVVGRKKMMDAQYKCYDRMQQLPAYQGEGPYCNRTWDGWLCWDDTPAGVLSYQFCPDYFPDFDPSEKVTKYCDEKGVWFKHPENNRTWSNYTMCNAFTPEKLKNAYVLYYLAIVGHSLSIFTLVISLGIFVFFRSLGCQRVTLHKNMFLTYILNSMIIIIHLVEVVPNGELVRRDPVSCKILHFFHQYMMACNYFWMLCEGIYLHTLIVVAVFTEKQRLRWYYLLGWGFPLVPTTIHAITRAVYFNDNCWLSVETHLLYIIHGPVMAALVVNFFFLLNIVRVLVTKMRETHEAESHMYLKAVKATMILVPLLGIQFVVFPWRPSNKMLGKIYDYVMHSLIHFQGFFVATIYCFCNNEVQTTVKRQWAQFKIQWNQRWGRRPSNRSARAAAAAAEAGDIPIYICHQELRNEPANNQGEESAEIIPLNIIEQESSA

[4] = molecular target: D(3) dopamine receptor (Homo sapiens, UniProt P35462); experiment: DRUGMATRIX: Dopamine D3 radioligand binding (ligand: [3H] Spiperone); format: cell membranes, CHO, Membrane; conditions: for Ki: read-out: Ki
Chain of D(3) dopamine receptor (P35462 whole entry): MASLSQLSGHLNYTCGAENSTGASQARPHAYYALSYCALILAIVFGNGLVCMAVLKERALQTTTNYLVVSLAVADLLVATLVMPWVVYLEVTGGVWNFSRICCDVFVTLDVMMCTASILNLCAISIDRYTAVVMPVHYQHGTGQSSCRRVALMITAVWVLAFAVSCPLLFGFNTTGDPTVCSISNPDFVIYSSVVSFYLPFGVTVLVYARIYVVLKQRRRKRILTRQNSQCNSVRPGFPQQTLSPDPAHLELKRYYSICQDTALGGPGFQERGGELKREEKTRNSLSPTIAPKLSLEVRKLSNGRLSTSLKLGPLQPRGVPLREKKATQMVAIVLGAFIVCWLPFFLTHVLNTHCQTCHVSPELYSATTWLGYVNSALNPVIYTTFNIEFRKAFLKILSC

[5] = molecular target: Melanocortin receptor 4 (Homo sapiens, UniProt P32245); format: cell membranes, Membrane; conditions: hek293; note: in other assays of this panel Not Active means under 50% inhibition at 10 µM
Chain of Melanocortin receptor 4 (P32245 whole entry): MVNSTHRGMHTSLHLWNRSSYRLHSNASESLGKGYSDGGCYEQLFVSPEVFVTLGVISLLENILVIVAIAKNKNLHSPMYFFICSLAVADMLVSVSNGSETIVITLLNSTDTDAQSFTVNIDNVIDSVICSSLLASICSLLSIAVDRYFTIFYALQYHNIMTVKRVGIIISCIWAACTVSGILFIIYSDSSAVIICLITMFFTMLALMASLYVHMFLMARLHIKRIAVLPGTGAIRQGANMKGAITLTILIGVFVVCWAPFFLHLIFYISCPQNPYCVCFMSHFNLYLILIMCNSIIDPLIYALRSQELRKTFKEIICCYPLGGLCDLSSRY

[6] = molecular target: Cytochrome P450 2C9 (Homo sapiens, UniProt P11712); conditions: bti-tn-5b1-4; note: in other assays of this panel Not Active means under 50% inhibition at 10 µM
Chain of Cytochrome P450 2C9 (P11712 whole entry): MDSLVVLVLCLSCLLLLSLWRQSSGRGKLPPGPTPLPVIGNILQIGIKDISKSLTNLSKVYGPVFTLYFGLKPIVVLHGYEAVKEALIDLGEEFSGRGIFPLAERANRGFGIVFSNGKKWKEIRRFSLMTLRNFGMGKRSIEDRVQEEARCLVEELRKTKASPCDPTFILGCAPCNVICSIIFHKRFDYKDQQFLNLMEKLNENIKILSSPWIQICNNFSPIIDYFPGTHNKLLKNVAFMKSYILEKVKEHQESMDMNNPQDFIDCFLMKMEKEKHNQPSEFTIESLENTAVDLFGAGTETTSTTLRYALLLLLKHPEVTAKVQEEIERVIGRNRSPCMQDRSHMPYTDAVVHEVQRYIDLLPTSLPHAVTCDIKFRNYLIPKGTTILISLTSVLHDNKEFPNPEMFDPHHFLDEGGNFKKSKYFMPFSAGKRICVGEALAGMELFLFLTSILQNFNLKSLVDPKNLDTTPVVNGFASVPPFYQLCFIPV

CCS(=O)(=O)CCn1c([N+](=O)[O-])cnc1C [TINIDAZOLE]
Not Active: IC50 ([1]; cho-k1) | IC50 [2] | Ki [2] | IC50 [3] | IC50 ([4]; cho) | IC50 [5]

Nc1nc2c(c(=O)[nH]1)N(C=O)C(CNc1ccc(C(=O)N[C@@H](CCC(=O)O)C(=O)O)cc1)CN2 (some centres undefined) [LEUCOVORIN]
Not Active: IC50 ([1]; cho-k1) | IC50 [6] | Ki [6] | IC50 [2] | Ki [2] | IC50 [3] | IC50 ([4]; cho) | IC50 [5]

CC(=O)O[C@H]1C[C@@H]2CC[C@@H]3[C@H](CC[C@@]4(C)[C@H]3C[C@H]([N+]3(C)CCCCC3)[C@@H]4OC(C)=O)[C@@]2(C)C[C@@H]1N1CCCCC1.[Br-] [VECURONIUM BROMIDE]
Not Active: IC50 ([1]; cho-k1) | IC50 [6] | Ki [6] | IC50 [2] | Ki [2] | IC50 [3] | IC50 ([4]; cho) | IC50 [5]

C[C@@H](O)[C@H]1C(=O)N2C(C(=O)O)=C(S[C@@H]3CN[C@H](C(=O)N(C)C)C3)[C@H](C)[C@H]12 [MEROPENEM]
Not Active: IC50 ([1]; cho-k1) | IC50 [6] | Ki [6] | IC50 [2] | Ki [2] | IC50 [3] | IC50 ([4]; cho) | IC50 [5]

Cc1cn([C@H]2C[C@H](N=[N+]=[N-])[C@@H](CO)O2)c(=O)[nH]c1=O [ZIDOVUDINE]
Not Active: IC50 ([1]; cho-k1) | IC50 [6] | Ki [6] | IC50 [2] | Ki [2] | IC50 [3] | IC50 ([4]; cho) | IC50 [5]

COc1cc(N)nc2[nH]c(-c3ccc(F)cc3)c(-c3ccncc3)c12
Not Active: IC50 ([1]; cho-k1) | IC50 [2] | Ki [2] | IC50 [3] | IC50 ([4]; cho) | IC50 [5]

CN1C2CCCC1CC(NC(=O)c1nn(C)c3ccccc13)C2 (centres undefined) [GRANISETRON]
Not Active: IC50 ([1]; cho-k1) | IC50 [6] | Ki [6] | IC50 [3] | IC50 ([4]; cho) | IC50 [5]

THIMEROSAL
29 nM: Ki ([4]; cho)
Not Active: IC50 ([1]; cho-k1) | Ki ([1]; cho-k1) | IC50 [6] | Ki [6] | IC50 [2] | Ki [2] | IC50 [3] | Ki [3] | IC50 [5] | Ki [5]
85 nM: IC50 ([4]; cho, read-out: IC50)

C[C@]12CC[C@H]3[C@@H](CCC4=CC(=O)CC[C@@]43C)[C@@H]1CC[C@@H]2O [TESTOSTERONE]
Not Active: IC50 ([1]; cho-k1) | IC50 [2] | Ki [2] | IC50 [3] | IC50 ([4]; cho) | IC50 [5]

CNS(=O)(=O)Cc1ccc2[nH]cc(CCN(C)C)c2c1
Not Active: IC50 [6] | Ki [6] | IC50 [2] | Ki [2] | IC50 [3] | IC50 ([4]; cho) | IC50 [5]
804 nM: IC50 ([1]; read-out: IC50)
459 nM: Ki ([1]; read-out: Ki)

CO[C@H]1C[C@@H]2CC[C@@H](C)[C@@](O)(O2)C(=O)C(=O)N2CCCC[C@H]2C(=O)O[C@H]([C@H](C)C[C@@H]2CC[C@@H](O)[C@H](OC)C2)CC(=O)[C@H](C)/C=C(\C)[C@@H](O)[C@@H](OC)C(=O)[C@H](C)C[C@H](C)/C=C/C=C/C=C/1C [SIROLIMUS]
Not Active: IC50 ([1]; cho-k1) | IC50 [2] | Ki [2] | IC50 [3] | IC50 ([4]; cho) | IC50 [5]

CC(C)OC(=O)C(C)(C)Oc1ccc(C(=O)c2ccc(Cl)cc2)cc1 [FENOFIBRATE]
Not Active: IC50 ([1]; cho-k1) | IC50 [6] | Ki [6] | IC50 [3] | IC50 [5]

CN(CCOc1ccc(CC2SC(=O)NC2=O)cc1)c1ccccn1 (centres undefined) [ROSIGLITAZONE]
Not Active: IC50 ([1]; cho-k1) | IC50 [6] | Ki [6] | IC50 [2] | Ki [2] | IC50 [3] | IC50 ([4]; cho) | IC50 [5]

C=C(C)[C@H]1Cc2c(ccc3c2O[C@@H]2COc4cc(OC)c(OC)cc4[C@@H]2C3=O)O1 [ROTENONE]
Not Active: IC50 ([1]; cho-k1) | IC50 [6] | Ki [6] | IC50 [2] | Ki [2] | IC50 [3] | IC50 ([4]; cho) | IC50 [5]

Nc1ccc(S(=O)(=O)Nc2nccs2)cc1 [SULFATHIAZOLE]
Not Active: IC50 ([1]; cho-k1) | IC50 [6] | Ki [6] | IC50 [2] | Ki [2] | IC50 [3] | IC50 ([4]; cho) | IC50 [5]

OCCN1CCN(CCCN2c3ccccc3Sc3ccc(C(F)(F)F)cc32)CC1 [FLUPHENAZINE]
939 nM: Ki ([1]; read-out: Ki)
1640 nM: IC50 ([1]; read-out: IC50)
Not Active: IC50 [3] | IC50 [5]

COc1ccc(CN2CCNCC2)c(OC)c1OC [TRIMETAZIDINE]
Not Active: IC50 ([1]; cho-k1) | IC50 [2] | Ki [2] | IC50 [3] | IC50 ([4]; cho) | IC50 [5]

CC[C@@H](CO)NC(=O)[C@@H]1C=C2c3cccc4c3c(cn4C)C[C@H]2N(C)C1 [METHYSERGIDE]
31 nM: Ki ([1]; read-out: Ki)
172 nM: IC50 ([4]; read-out: IC50)
Not Active: IC50 [6] | Ki [6] | IC50 [3] | IC50 [5]
59 nM: Ki [4]
54 nM: IC50 ([1]; read-out: IC50)

COc1cc(C(=O)NS(=O)(=O)c2ccccc2C)ccc1Cc1cn(C)c2ccc(NC(=O)OC3CCCC3)cc12 [ZAFIRLUKAST]
Not Active: IC50 ([1]; cho-k1) | IC50 [2] | Ki [2] | IC50 [3] | IC50 ([4]; cho) | IC50 [5]

CCCc1nn(C)c2c(=O)[nH]c(-c3cc(S(=O)(=O)N4CCN(C)CC4)ccc3OCC)nc12
Not Active: IC50 ([1]; cho-k1) | IC50 [6] | Ki [6] | IC50 [2] | Ki [2] | IC50 [3] | IC50 ([4]; cho) | IC50 [5]

CN[C@@H]1[C@H](O)[C@H](NC)[C@H]2O[C@@]3(O)C(=O)C[C@@H](C)O[C@H]3O[C@@H]2[C@H]1O [SPECTINOMYCIN]
Not Active: IC50 ([1]; cho-k1) | IC50 [6] | Ki [6] | IC50 [2] | Ki [2] | IC50 [3] | IC50 ([4]; cho) | IC50 [5]

CC(=O)Nc1nnc(S(N)(=O)=O)s1 [ACETAZOLAMIDE]
Not Active: IC50 ([1]; cho-k1) | IC50 [6] | Ki [6] | IC50 [3] | IC50 ([4]; cho) | IC50 [5]

CCN(CC)CC#CCOC(=O)C(O)(c1ccccc1)C1CCCCC1 (centres undefined) [OXYBUTYNIN]
Not Active: IC50 ([1]; cho-k1) | IC50 [6] | Ki [6] | IC50 [3] | IC50 [5]

CC(C)(C)NC[C@H](O)COc1nsnc1N1CCOCC1 [TIMOLOL]
2710 nM: IC50 ([1]; read-out: IC50)
1550 nM: Ki ([1]; read-out: Ki)
Not Active: IC50 [6] | Ki [6] | IC50 [2] | Ki [2] | IC50 [3] | IC50 ([4]; cho) | IC50 [5]

O=P(O)(O)C(O)(Cc1cccnc1)P(=O)(O)O [RISEDRONIC ACID]
Not Active: IC50 ([1]; cho-k1) | IC50 [6] | Ki [6] | IC50 [2] | Ki [2] | IC50 [3] | IC50 ([4]; cho) | IC50 [5]

COc1ccc(/C=C/C(=O)Nc2ccccc2C(=O)O)cc1OC
Not Active: IC50 ([1]; cho-k1) | IC50 [6] | Ki [6] | IC50 [2] | Ki [2] | IC50 [3] | IC50 ([4]; cho) | IC50 [5]

O=c1[nH]c2ccccc2n1CCCN1CCC(n2c(=O)[nH]c3cc(Cl)ccc32)CC1 [DOMPERIDONE]
Not Active: IC50 ([1]; cho-k1) | IC50 [3] | IC50 [5]

O=c1n(CCCN2CCN(c3cccc(Cl)c3)CC2)nc2ccccn12 [TRAZODONE]
Not Active: IC50 [6] | Ki [6] | IC50 [3] | IC50 [5]

CCOC(N)=O
Not Active: IC50 ([1]; cho-k1) | IC50 [6] | Ki [6] | IC50 [2] | Ki [2] | IC50 [3] | IC50 ([4]; cho) | IC50 [5]

C#CCN(C)[C@H](C)Cc1ccccc1 [SELEGILINE]
Not Active: IC50 ([1]; cho-k1) | IC50 [6] | Ki [6] | IC50 [2] | Ki [2] | IC50 [3] | IC50 ([4]; cho) | IC50 [5]

Nc1ccc(S(=O)(=O)Nc2ncccn2)cc1 [SULFADIAZINE]
Not Active: IC50 ([1]; cho-k1) | IC50 [6] | Ki [6] | IC50 [2] | Ki [2] | IC50 [3] | IC50 ([4]; cho) | IC50 [5]
